Molecular target: T1, human TLR7 (Homo sapiens, UniProt Q9NYK1)
T1 construct: host or cells: HEK-Blue TLR7 cells (engineered human embryonic kidney cells)
T1 sequence (Q9NYK1 27-1049): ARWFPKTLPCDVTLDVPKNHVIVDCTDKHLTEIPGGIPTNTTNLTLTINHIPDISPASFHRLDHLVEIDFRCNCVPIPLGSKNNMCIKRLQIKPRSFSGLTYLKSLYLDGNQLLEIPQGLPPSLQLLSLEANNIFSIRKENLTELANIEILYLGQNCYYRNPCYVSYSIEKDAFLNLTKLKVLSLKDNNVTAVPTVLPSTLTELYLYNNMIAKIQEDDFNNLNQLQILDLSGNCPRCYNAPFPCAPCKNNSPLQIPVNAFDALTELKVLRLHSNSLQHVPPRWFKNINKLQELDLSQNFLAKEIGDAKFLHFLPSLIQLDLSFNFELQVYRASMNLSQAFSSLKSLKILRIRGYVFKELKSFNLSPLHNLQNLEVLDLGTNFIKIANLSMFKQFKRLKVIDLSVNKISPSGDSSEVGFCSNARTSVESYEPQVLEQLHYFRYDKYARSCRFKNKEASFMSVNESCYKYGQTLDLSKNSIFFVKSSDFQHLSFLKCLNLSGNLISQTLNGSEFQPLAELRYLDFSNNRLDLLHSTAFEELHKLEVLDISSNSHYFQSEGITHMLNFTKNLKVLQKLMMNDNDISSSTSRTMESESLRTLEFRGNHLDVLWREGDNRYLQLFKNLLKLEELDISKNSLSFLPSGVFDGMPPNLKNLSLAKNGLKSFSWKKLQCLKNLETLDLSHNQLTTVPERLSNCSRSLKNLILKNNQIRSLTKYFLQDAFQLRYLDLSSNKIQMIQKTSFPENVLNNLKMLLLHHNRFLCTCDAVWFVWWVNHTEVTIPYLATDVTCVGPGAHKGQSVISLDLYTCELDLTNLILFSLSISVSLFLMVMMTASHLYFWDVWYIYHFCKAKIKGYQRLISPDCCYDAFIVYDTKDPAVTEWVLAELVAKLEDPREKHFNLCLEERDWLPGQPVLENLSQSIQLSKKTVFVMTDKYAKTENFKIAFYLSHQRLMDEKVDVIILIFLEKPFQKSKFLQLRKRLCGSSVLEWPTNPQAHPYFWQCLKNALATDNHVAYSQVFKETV
Test: Human TLR7 agonist activity assay (HEK-Blue TLR7 SEAP reporter)
Assay type: cell-based
Conditions: HEK-Blue TLR7 cells, 18 h treatment, in some instances average of plural assays, read-out: hTLR7 EC50
Protocol: Human TLR7 Agonist Activity Assay
HEK-Blue™ TLR7 cells were added to each well of a 384-well tissue-culture plate (15,000 cells per well) and incubated 16-18 h at 37° C., 5% CO2. Compounds (100 nl) were dispensed into wells containing the HEK-Blue™ TLR cells and the treated cells were incubated at 37° C., 5% CO2. After 18 h treatment ten microliters of freshly-prepared Quanti-Blue™ reagent (Invivogen) was added to each well, incubated for 30 min (37° C., 5% CO2) and SEAP levels measured using an Envision plate reader (OD=620 nm).

Structure (SMILES) | EC50 [nM]
CCCCNc1nc(N)nc2cnn(Cc3ccc(CN4CCCC4)cc3OC)c12 [Compound 833] | 31.1
CCCCNc1nc(N)nc2cnn(Cc3ccc(CNc4ccc(CCO)cc4)cc3OC)c12 [Compound 822] | 244
CCCCNc1nc(N)nc2cnn(Cc3ccc(CNC4CC(O)C4)cc3OC)c12 (stereo not shown) [Compound 811] | 138
CCCCNc1nc(N)nc2cnn(Cc3ccc(Oc4ccc(C(C)(C)O)cc4)nc3)c12 [Compound 829] | 1340
CCCCNc1nc(N)nc2cnn(Cc3ccc(CNCCO)cc3OC)c12 [Compound 816] | 92.5
CCCCNCc1ccc(Cn2ncc3nc(N)nc(NCCCC)c32)c(OC)c1 [Compound 831] | 104
CCCCNc1nc(N)nc2cnn(Cc3ccc(Oc4ccc(CO)cc4)cc3OC)c12 [Compound 803] | 569
CCCCNc1nc(N)nc2cnn(Cc3ccc(CN4CC(CCO)C4)cc3OC)c12 [Compound 815] | 33.2
CCCCNc1nc(N)nc2cnn(Cc3ccc(CNC(C)(C)C)cc3OC)c12 [Compound 828] | 98.7
CCCCNc1nc(N)nc2cnn(Cc3ccc(Oc4ccc(CN5CCN(C)CC5)cc4)cc3OC)c12 [Compound 809] | 74.5
CCCCNc1nc(N)nc2cnn(Cc3ccc(CN(C)CCCO)cc3OC)c12 [Compound 825] | 43.5
CCCCNc1nc(N)nc2cnn(Cc3ccc(CNC4CCC4)cc3OC)c12 [Compound 800] | 58.3
CCCCNc1nc(N)nc2cnn(Cc3ccc(CN4CCN(CCO)CC4)cc3OC)c12 [Compound 823] | 21.5
CCCCNc1nc(N)nc2cnn(Cc3ccc(CNCC(C)(C)O)cc3OC)c12 [Compound 805] | 41.4
CCCCNc1nc(N)nc2cnn(Cc3ccc(CNC4(CO)CCCC4)cc3OC)c12 [Compound 820] | 121
CCCCNc1nc(N)nc2cnn(Cc3ccc(CNCC4CC(O)C4)cc3OC)c12 (stereo not shown) [Compound 807] | 2550
CCCCNc1nc(N)nc2cnn(Cc3ccc(Oc4ccc(CN5CCN(CCO)CC5)cc4)cc3OC)c12 [Compound 810] | 245
CCCCNc1nc(N)nc2cnn(Cc3ccc(CN4CCCNCC4)cc3OC)c12 [Compound 821] | 33.8
CCC[C@@H](CCO)Nc1nc(N)nc2cnn(Cc3ccc(CO)cc3OC)c12 [Compound 817] | 27.8
CCCCNc1nc(N)nc2cnn(Cc3ccc(Oc4ccc(CNCCO)cc4)cc3OC)c12 [Compound 802] | 43.8
CCCCNc1nc(N)nc2cnn(Cc3ccc(CN4CC5CNCC5C4)cc3OC)c12 (stereo not shown) [Compound 812] | 102
CCCCNc1nc(N)nc2cnn(Cc3ccc(Oc4ccc(CNCCOC)cc4)cc3OC)c12 [Compound 808] | 157
CCC[C@@H](CCO)Nc1nc(N)nc2cnn(Cc3ccc(CN4CC5CNCC5C4)cc3OC)c12 (stereo partly shown) [Compound 834] | 29.9
CCCCNc1nc(N)nc2cnn(Cc3ccc(CNCCOC)cc3OC)c12 [Compound 826] | 182
CCCCNc1nc(N)nc2cnn(Cc3ccc(CNC4CCC(O)CC4)cc3OC)c12 (stereo not shown) [Compound 806] | 41.4
CCC[C@@H](CCO)Nc1nc(N)nc2cnn(Cc3ccc(CN4CC5(CNC5)C4)cc3OC)c12 [Compound 835] | 89
CCCCNc1nc(N)nc2cnn(Cc3ccc(CN4CCN(C)CC4)cc3OC)c12 [Compound 827] | 47.6
CCCCNc1nc(N)nc2cnn(Cc3ccc(CO)cc3OC)c12 [Compound 818] | 258

Now from value to compound:

EC50 [nM] | Structure (SMILES)
10.8 | CCCCNc1nc(N)nc2cnn(Cc3ccc(Oc4ccc(CNC5CCOCC5)cc4)cc3OC)c12 [Compound 858]
640 | CCCCNc1nc(N)nc2cnn(Cc3ncc(CNC4CCC4)cc3OC)c12 [Compound 855]
19.5 | CCC[C@@H](CCO)Nc1nc(N)nc2cnn(Cc3ccc(CNC4CC(C(C)(C)C)C4)cc3OC)c12 (stereo partly shown) [Compound 866]
55.9 | CCC[C@@H](CCO)Nc1nc(N)nc2cnn(Cc3ccc(CN4C[C@@H]5C[C@H]4CN5)cc3OC)c12 [Compound 843]
15.3 | CCC[C@@H](CCO)Nc1nc(N)nc2cnn(Cc3ccc(Cn4ccnc4)cc3OC)c12 [Compound 836]
28.3 | CCC[C@@H](CCO)Nc1nc(N)nc2cnn(Cc3ccc(CN4CC(CCO)C4)cc3OC)c12 [Compound 842]
3170 | CCCCNc1nc(N)nc2cnn(Cc3ccc(CN4CC5CC4CN5)cn3)c12 (stereo not shown) [Compound 852]
2.4 | CCC[C@@H](CCO)Nc1nc(N)nc2cnn(Cc3ccc(CNCc4ccncc4)cc3OC)c12 [Compound 837]
21.2 | CCCCNc1nc(N)nc2cnn(Cc3ccc(CN4CCCNCC4)cc3OC)c12 [Compound 845]
420 | CCCCNc1nc(N)nc2cnn(Cc3ccc(CNC4CCC4)cc3F)c12 [Compound 853]
2030 | CCCCNc1nc(N)nc2cnn(Cc3ccc(CN4CCN(CCO)CC4)cn3)c12 [Compound 849]
959 | COCCNc1nc(N)nc2cnn(Cc3ccc(CNC4CCC4)cc3OC)c12 [Compound 865]
253 | CCCCNc1nc(N)nc2cnn(Cc3ccc(CC#N)cc3OC)c12 [Compound 873]
1160 | CCCCNc1nc(N)nc2cnn(Cc3ncc(CNC4CCOCC4)cc3OC)c12 [Compound 856]
9.7 | CCC[C@@H](CCO)Nc1nc(N)nc2cnn(Cc3ccc(CNC4CCC4)cc3OC)c12 [Compound 841]
242 | CCC[C@@H](CCO)Nc1nc(N)nc2cnn(Cc3ccc(CN4CC5CC4CN5)cc3OC)c12 (stereo partly shown) [Compound 839]
58 | CCC[C@@H](CCO)Nc1nc(N)nc2cnn(Cc3ccc(CNC4CCC4)cc3)c12 [Compound 875]
19.5 | CCCCNc1nc(N)nc2cnn(Cc3ccc(Oc4ccc(CNC5CCC5)cc4)cc3OC)c12 [Compound 860]

EC50 [nM] | Structure (SMILES)
4.6 | CCC[C@@H](CCO)Nc1nc(N)nc2cnn(Cc3ccc(CN4CCc5cnccc5C4)cc3OC)c12 [Compound 844]
1110 | CCC[C@@H](CCO)Nc1nc(N)nc2cnn(Cc3ccc(CN4CC(O)C4)cc3)c12 [Compound 878]
32.7 | CCC[C@H](CCO)Nc1nc(N)nc2cnn(Cc3ccc(CNC4CCC4)cc3OC)c12 [Compound 872]
33 | CCC[C@@H](CCO)Nc1nc(N)nc2cnn(Cc3ccc(CNC4(C)CCOCC4)cc3OC)c12 [Compound 848]
370 | CCC[C@@H](CCO)Nc1nc(N)nc2cnn(Cc3ccc(CN4CCN(CCO)CC4)cc3)c12 [Compound 879]
187 | CCC[C@@H](CCNC(C)=O)Nc1nc(N)nc2cnn(Cc3ccc(CNC4(C)CCOCC4)cc3OC)c12 [Compound 847]
39.6 | CCC[C@@H](CCO)Nc1nc(N)nc2cnn(Cc3ccc(CN4CCCNCC4)cc3OC)c12 [Compound 838]
1.2 | CCC[C@@H](CCO)Nc1nc(N)nc2cnn(Cc3ccc(CN4CC(OC)C4)cc3OC)c12 [Compound 861]
1770 | CCCCNc1nc(N)nc2cnn(Cc3ccc(CN4CCCC4)cn3)c12 [Compound 851]
2050 | CCC[C@@H](CCO)Nc1nc(N)nc2cnn(Cc3ccc(CO)cc3)c12 [Compound 874]
11 | CCC[C@@H](CCO)Nc1nc(N)nc2cnn(Cc3ccc(CN4CC(F)(F)C4)cc3OC)c12 [Compound 862]
216 | CCOCCNc1nc(N)nc2cnn(Cc3ccc(CNC4CCC4)cc3OC)c12 [Compound 864]
1620 | CCCCNc1nc(N)nc2cnn(Cc3ccc(CN4CCNCC4)cn3)c12 [Compound 850]
1800 | CCCCNc1nc(N)nc2cnn(Cc3ccc(CN4CCN(CCO)CC4)cc3F)c12 [Compound 870]
1.4 | CCC[C@@H](CCO)Nc1nc(N)nc2cnn(Cc3ccc(CN4CC(OC(C)C)C4)cc3OC)c12 [Compound 868]
9.5 | CCC[C@@H](CCO)Nc1nc(N)nc2cnn(Cc3ccc(CN4CC(O)C4)cc3OC)c12 [Compound 863]
11.5 | CCCCNc1nc(N)nc2cnn(Cc3ccc(Oc4ccc(CNCC(C)(C)O)cc4)cc3OC)c12 [Compound 857]
190 | CCC[C@@H](CCO)Nc1nc(N)nc2cnn(Cc3ccc(CN4CC(OC)C4)cc3)c12 [Compound 877]
